{
  "source": "patent US20040005291A1",
  "about": "“Methods for regulating co-stimulatory molecule expression with reactive oxygen” (priority 2001, published 2004)",
  "key": {"[1]": {"test_system": "Fas and B7", "assay": "Fas and B7 levels in cells in the presence of 2-deoxyglucose", "type": "cell-based", "settings": "cells where glucose cannot bind to its receptor", "experimental": "[…] Cells were then harvested, stained with fluorescent labeled anti-Fas, or with isotype controls as indicated. […] Data were analyzed using Becton Dickinson CellQuest software."}, "[2]": {"test_system": "B7.2 on PC12 neural cell line", "settings": "PC12 cells, 0.25 mM H202, 48 hours", "experimental": "(§1) The cells were then exposed to 200 mW of low frequency microwaves for 30 minutes, 1 hour, or 3 hours. Cells were then stained with DCF-DA (Molecular Probes, Inc. Eugene, Oreg.) as an indicator of relative levels of H202. Cells were also stained with fluorescent labeled antibodies to human B7.2 (Pharmingen, Inc.), versus fluorescent labeled, isotype matched control antibodies, upper panels, left and right, respectively. Indicated levels represent the ratio of specific B7.2 stain over the fluorescently labeled isotype control for each condition. Replicate samples, microwaved for the indicated time periods, were subsequently cultured for an additional 21 hours and stained for H202 and B7.2, as indicated, lower panels. Cells were analyzed flow cytometrically using a Coulter Excel Flow Cytometer. Data were analyzed using Becton Dickinson CellQuest software.\n(§2) Methods: Human myelocyte cells U937, HL60, PC12, and PC12Trk cells were cultured in the presence of subcytotoxic doses (0.25 mM) of H202 for 48 hours, harvested and stained with isotype controls or fluorescent labeled anti-B7.2 as described in Example 1. Cells were analyzed flow cytometrically using a Coulter Excel Flow Cytometer. Data were analyzed using Becton Dickinson CellQuest software."}, "[3]": {"test_system": "B7.2 on PC12Trk neural cell line", "settings": "PC12Trk cells, 0.25 mM H202, 48 hours", "experimental": "as §1, §2"}, "[4]": {"test_system": "B7.2 on U937 cells", "settings": "0.25 mM H202, 48 hours", "experimental": "as §1, §2"}, "[5]": {"test_system": "B7.2 on HL60 cells", "settings": "0.25 mM H202, 48 hours", "experimental": "as §1, §2"}, "[6]": {"test_system": "Fas on keratinocyte cell line", "settings": "mouse keratinocyte cell line, 0.25 mM H2O2, 12 or 24 hours", "experimental": "(§3) A mouse keratinocyte cell line was incubated with or without 0.25 mM Hydrogen Peroxide (H2O2) for 12 or 24 hours. Then the level of B7.1 and Fas were evaluated. The data is attached as FIGS. 3A and 3B."}, "[7]": {"test_system": "B7.1 on keratinocyte cell line", "settings": "mouse keratinocyte cell line, 0.25 mM H2O2, 12 or 24 hours", "experimental": "as §3"}, "[8]": {"test_system": "B7 on MCF7 cells", "settings": "H2O2 at subcytotoxic levels", "source_text": "We added H2O2 (at subcytotoxic levels) directly to cells (MCF7, HL60, U937, and neural cells PC12 and PC12Trk^15) in culture to see if this caused changes in B7 expression."}, "[9]": {"test_system": "reactive oxygen in neural stem cells", "settings": "DCF-DA stain, FIG. 4", "experimental": "FIG. 4 is a graph depicting the effects of ethanol in neural stem cells. The cells were stained with DCF-DA.\nMethods: Neural stem cells were treated as described above."}, "[10]": {"test_system": "co-stimulatory molecules in neural stem cells"}, "[11]": {"test_system": "Fas on HL60 cells", "assay": "Cell surface Fas expression, flow cytometry with anti-Fas", "type": "cell-based", "experimental": "Methods: HL60 cells were incubated with insulin or under in conditions of low glucose overnight. Cells were then harvested, stained with fluorescent labeled anti-Fas, or with isotype controls as indicated. […] Data were analyzed using Becton Dickinson CellQuest software."}},
  "data": [
    {"compound": "O=CC[C@@H](O)[C@H](O)[C@H](O)CO", "note": "[2-deoxyglucose]", "values": [
      {"measurement": "levels of these molecules (Fas and B7)", "setting": "[1]", "value": "substantial reductions"}
    ]},
    {"compound": "OO", "note": "[H2O2, Hydrogen Peroxide]", "values": [
      {"measurement": "cell surface expression of B7.2", "setting": "[2]", "value": "increased cell surface expression of B7.2"},
      {"measurement": "cell surface expression of B7.2", "setting": "[3]", "value": "increased cell surface expression of B7.2"},
      {"measurement": "cell surface expression of B7.2", "setting": "[4]", "value": "increased cell surface expression of B7.2"},
      {"measurement": "cell surface expression of B7.2", "setting": "[5]", "value": "increased cell surface expression of B7.2"},
      {"measurement": "level of expression of Fas", "setting": "[6]", "value": "increases"},
      {"measurement": "level of expression of B7.1", "setting": "[7]", "value": "increases"},
      {"measurement": "B7 expression", "setting": "[8]", "value": "increase in B7"}
    ]},
    {"compound": "CCO", "note": "[alcohol, ethanol]", "values": [
      {"measurement": "reactive oxygen", "setting": "[9]", "value": "increase reactive oxygen"},
      {"measurement": "induction of co-stimulatory molecules", "setting": "[10]", "value": "increased induction of co-stimulatory molecules"}
    ]},
    {"compound": "insulin", "values": [
      {"measurement": "cell surface Fas expression", "setting": "[11]; HL60 cells incubated with insulin overnight", "value": "loss of cell surface Fas expression"},
      {"measurement": "reduction of levels of Fas", "setting": "[11]; addition of insulin to cells in culture", "value": "ten-fold"}
    ]}
  ]
}
